These results are taken from patent US20110105543A1, “NOVEL TRIARYL DERIVATIVES USEFUL AS MODULATORS OF NICOTINIC ACETYLCHOLINE RECEPTORS” (NeuroSearch A/S, priority 2008, published 2011).

Structures are written as SMILES.

Data set [1] has as its target T1, nAChR α7 receptors (Homo sapiens, UniProt P36544).
T1 construct: expressed in transfected cells; host or cells: Xenopus laevis oocytes
The data set can be described thus: Positive modulation of acetylcholine-induced currents at wild-type nAChR α7 receptors expressed in Xenopus laevis oocytes (two-electrode voltage clamp). The format is cell-based. The following applies: for effect on acetylcholine-induced current amplitude: compound 0.01-31.6 μM applied 30 s before and during 100 μM acetylcholine; for maximal modulation of the acetylcholine response (Imax) / EC50: nAChR α7 in Xenopus oocytes, 100 μM acetylcholine; for maximal modulation of the acetylcholine response (Imax): (test-control)/control*100%; for EC50: clamped at -60 mV, compound 0.01-31.6 μM, read-out: calculated EC50 value for positive modulation of 100 μM acetylcholine responses. The protocol:
In this example the positive modulation of wild-type nAChR α7 receptors by Compound 2 (i.e. 4-[5-Amino-6-(2,4-dichloro-phenyl)-pyrimidin-4-yl]-phenol; FIGS. 1A and 1B) and by Compound 6 (i.e. 2′-Amino-5′,2″-difluoro-4″-trifluoromethyl-[1,1′;3′,1″]terphenyl-4-ol; FIGS. 2A and 2B) was determined using nAChR α7 receptors heterologously expressed in Xenopus laevis oocytes.
The electrical current through the nAChR α7 channel was measured using conventional two-electrode voltage clamp and nAChR α7 currents were activated by applying pulses of agonist-containing solution onto the nAChR α7 expressing oocyte.
In brief, the oocytes were placed in a recording chambers and continuously superfused with an Oocyte Ringer (OR) solution containing 90 mM NaCl, 2.5 mM KCl, 2.5 mM CaCl2, 1 mM MgCl2 and 5 mM HEPES (pH adjusted to 7.4). The oocytes were clamped at −60 mV and currents were induced by applying 20 s pulses of 100 μM acetylcholine dissolved in OR. The intervals between the acetylcholine applications were 5 minutes, during which the oocytes were washed with OR. The first three applications were control applications to insure a constant response level of 100 μM acetylcholine.
The positive modulation in the presence of Compound 2 or Compound 6 was calculated as (test-control)/control*100% and the concentration response curve for this positive modulation was fitted to the sigmoidal logistic equation: I=Imax/(1+(EC50/[compound])^n), where Imax represents the maximal modulation of the control response, EC50 is the concentration causing a half maximal response, and n is the slope coefficient.

T1 sequence (P36544 23-502): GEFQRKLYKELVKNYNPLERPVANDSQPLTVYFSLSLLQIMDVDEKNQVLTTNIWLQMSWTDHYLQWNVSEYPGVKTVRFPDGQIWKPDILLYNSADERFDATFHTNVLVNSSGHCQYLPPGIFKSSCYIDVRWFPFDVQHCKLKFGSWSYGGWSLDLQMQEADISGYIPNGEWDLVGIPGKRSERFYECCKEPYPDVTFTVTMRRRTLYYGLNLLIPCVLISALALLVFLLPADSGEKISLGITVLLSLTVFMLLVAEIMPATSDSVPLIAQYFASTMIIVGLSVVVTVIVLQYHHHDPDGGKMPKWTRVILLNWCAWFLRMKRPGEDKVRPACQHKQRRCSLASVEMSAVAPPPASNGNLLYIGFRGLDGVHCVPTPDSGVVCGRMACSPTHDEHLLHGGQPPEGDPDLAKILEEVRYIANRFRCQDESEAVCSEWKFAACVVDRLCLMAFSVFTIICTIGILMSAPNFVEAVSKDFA

Turning to `COc1ccc(-c2ncnc(-c3ccc(Cl)cc3Cl)c2N)cc1` [Compound 1, 4-(2,4-Dichloro-phenyl)-6-(4-methoxy-phenyl)-pyrimidin-5-ylamine], the melting point (usually the temperature, or range, at which the solid turns liquid) fell in the range of 141.3 to 142.1 °C.

The molecule `Nc1c(-c2ccc(O)cc2)ncnc1-c1ccc(Cl)cc1Cl` [Compound 2, 4-[5-Amino-6-(2,4-dichloro-phenyl)-pyrimidin-4-yl]-phenol] returned a melting point of 97.3 to 98.2 °C. For the same molecule, in data set [1], the “effect on acetylcholine-induced current amplitude” value is “robust increase”; the “maximal modulation of the acetylcholine response (Imax)” value came out at 299%; the EC50 – broadly, the concentration giving half of the maximal effect – was 1200 nM.

Molecule `COc1ccc(-c2cc(F)cc(-c3ccc(C(F)(F)F)cc3F)c2N)cc1` [Compound 5, 5′,2″-Difluoro-4-methoxy-4″-trifluoromethyl-[1,1′;3′,1″]terphenyl-2′-ylamine] had a melting point of 85.2 to 86.3 °C.

In turn, `Nc1c(-c2ccc(O)cc2)cc(F)cc1-c1ccc(C(F)(F)F)cc1F` [Compound 6, 2′-Amino-5′,2″-difluoro-4″-trifluoromethyl-[1,1′;3′,1″]terphenyl-4-ol] registered a melting point of 97.8 to 98.9 °C. In data set [1], the “effect on acetylcholine-induced current amplitude” value is reported as “robust increase”, the “maximal modulation of the acetylcholine response (Imax)” value was 361% and the 50% effective concentration (EC50) was 1400 nM.

`COc1ccc(-c2ncnc(-c3ccc(C(F)(F)F)cc3F)c2N)c(OC)c1` [Compound 7, 4-(2,4-Dimethoxy-phenyl)-6-(2-fluoro-4-trifluoromethyl-phenyl)-pyrimidin-5-ylamine]: the melting point lay within 191.5 to 192.8 °C.

Turning to `COc1ccc(-c2ncnc(-c3ccc(C(F)(F)F)cc3F)c2N)c(O)c1` [Compound 9, 2-[5-Amino-6-(2-fluoro-4-trifluoromethyl-phenyl)-pyrimidin-4-yl]-5-methoxy-phenol], the melting point was in the range of 150 to 151.5 °C.

Molecule `Nc1c(-c2ccc3[nH]ccc3c2)ncnc1-c1ccc(C(F)(F)F)cc1F` [Compound 10, 4-(2-Fluoro-4-trifluoromethyl-phenyl)-6-(1H-indol-5-yl)-pyrimidin-5-ylamine] yielded a melting point of 216.1 to 217.8 °C.

For the molecule `Nc1c(-c2ccc(S(N)(=O)=O)cc2)ncnc1-c1ccc(C(F)(F)F)cc1F` [Compound 11, 4-[5-Amino-6-(2-fluoro-4-trifluoromethyl-phenyl)-pyrimidin-4-yl]-benzenesulfonamide], the melting point fell in the range of 174.8 to 176.1 °C.

Regarding `COc1ccc(-c2nc(C)nc(-c3ccc(C(F)(F)F)cc3F)c2N)cc1Cl` [Compound 12, 4-(3-Chloro-4-methoxy-phenyl)-6-(2-fluoro-4-trifluoromethyl-phenyl)-2-methyl-pyrimidin-5-ylamine], the melting point was 104.5 to 105.2 °C.

With `COc1ccc(-c2nc(C)nc(-c3ccc(C(F)(F)F)cc3F)c2[N+](=O)[O-])cc1` [Compound 13, 4-(2-Fluoro-4-trifluoromethyl-phenyl)-6-(4-methoxy-phenyl)-2-methyl-5-nitro-pyrimidine], the melting point fell in the range of 100.8 to 101.8 °C.

`Cc1nc(-c2ccc3c(c2)OCO3)c(N)c(-c2ccc(C(F)(F)F)cc2F)n1` [Compound 14, 4-Benzo[1,3]-dioxol-5-yl-6-(2-fluoro-4-trifluoromethyl-phenyl)-2-methyl-pyrimidin-5-ylamine] registered a melting point of 162.5 to 163.3 °C.

With `COc1ccc(-c2nc(C)nc(-c3ccc(C(F)(F)F)cc3F)c2N)cc1` [Compound 15, 4-(2-Fluoro-4-trifluoromethyl-phenyl)-6-(4-methoxy-phenyl)-2-methyl-pyrimidin-5-ylamine], the melting point was in the range of 129.2 to 130.6 °C.

`Cc1nc(-c2ccc(O)cc2)c(N)c(-c2ccc(C(F)(F)F)cc2F)n1` [Compound 16, 4-[5-Amino-6-(2-fluoro-4-trifluoromethyl-phenyl)-2-methyl-pyrimidin-4-yl]-phenol] came in with a melting point of 175.4 to 176.9 °C.

In turn, `COc1ccc(-c2nc(N)nc(-c3ccc(C(F)(F)F)cc3F)c2N)cc1` [Compound 17, 4-(2-Fluoro-4-trifluoromethyl-phenyl)-6-(4-methoxy-phenyl)-pyrimidine-2,5-diamine] returned a melting point of 125.8 to 127.1 °C.

`Nc1nc(-c2ccc(O)cc2)c(N)c(-c2ccc(C(F)(F)F)cc2F)n1` [Compound 18, 4-[2,5-Diamino-6-(2-fluoro-4-trifluoromethyl-phenyl)-pyrimidin-4-yl]-phenol] registered a melting point of 226.3 to 227.5 °C.

`COc1ccc(-c2cnnc(-c3ccc(C(F)(F)F)cc3F)c2N)cc1` [Compound 19, 3-(2-Fluoro-4-trifluoromethyl-phenyl)-5-(4-methoxy-phenyl)-pyridazin-4-ylamine]: the melting point lay within 215.3 to 216.2 °C.

For `Nc1c(-c2ccc(O)cc2)cnnc1-c1ccc(C(F)(F)F)cc1F` [Compound 20, 4-[5-Amino-6-(2-fluoro-4-trifluoromethyl-phenyl)-pyridazin-4-yl]-phenol], the melting point was in the range of 251 to 252.2 °C.

The molecule `COc1ccc(-c2cncc(-c3ccc(C(F)(F)F)cc3F)c2N)cc1` [Compound 21, 3-(2-Fluoro-4-trifluoromethyl-phenyl)-5-(4-methoxy-phenyl)-pyridin-4-ylamine] yielded a melting point of 169.5 to 170.3 °C.

Take `Nc1c(-c2ccc(O)cc2)cncc1-c1ccc(C(F)(F)F)cc1F` [Compound 22, 4-[4-Amino-5-(2-fluoro-4-trifluoromethyl-phenyl)-pyridin-3-yl]-phenol]: the melting point fell in the range of 133.6 to 134.8 °C.

`Nc1c(-c2ccc3[nH]ccc3c2)cncc1-c1ccc(C(F)(F)F)cc1F` [Compound 23, 3-(2-Fluoro-4-trifluoromethyl-phenyl)-5-(1H-indol-5-yl)-pyridin-4-ylamine] registered a melting point of 103 to 106 °C.

The molecule `Nc1c(-c2ccc(S(N)(=O)=O)cc2)cc(F)cc1-c1ccc(C(F)(F)F)cc1F` [Compound 25, 2′-Amino-5′,2″-difluoro-4″-trifluoromethyl-[1,1′;3′,1″]terphenyl-4-sulfonic acid amide] returned a melting point of 189.4 to 191.2 °C.
